# Experimental data taken from patent US20260193116A1, “MEMBRANE TREATMENT METHOD, BIOFOULING INHIBITION METHOD, AND ENDOTOXIN PRODUCTION INHIBITION METHOD IN WATER SYSTEM” (KURITA WATER INDUSTRIES LTD., priority 2022, published 2026).
# Tests used:
# [1] = system: biofouling of RO membrane (MFS cell); assay: MFS water flow test (Example 3): differential pressure increase of the RO membrane cell; settings: citric acid + ammonium chloride + sodium phosphate, 35° C., 0.36 mg/L as Cl2 (DPD method), Continuous addition
# [2] = system: bacterial flora in a biofilm attached to a RO membrane surface; assay: Bacterial flora analysis (16S rRNA amplicon) of biofilm attached to RO membrane surface after water flow test (Example 2)
# [3] = system: biofouling of RO membrane (MFS cell); assay: MFS water flow test (Example 1): differential pressure increase of the RO membrane cell
smiles,measurement,setting,value
"O=S(=O)(O)NCl.[Na] [Chlorosulfamic acid, sodium monochlorosulfamic acid]",Differential pressure suppression effect vs Control,[1],95%
same,(Negative bacteria/[negative bacteria + positive bacterial]) (%),[2],18.2%
same,Acidovorax existence ratio in bacterial flora,[2],0.1%
same,Azotobacter existence ratio in bacterial flora,[2],0.4%
same,Cupriavidus existence ratio in bacterial flora,[2],4.6%
same,Dominant bacteria in the biofilm (in words),[2],"Mycolicibacterium genus bacteria and Mycobacterium genus bacteria, which are gram-positive bacteria, were dominant"
same,Gram-negative bacteria (%),[2],16.7%
same,Gram-negative bacteria Others existence ratio in bacterial flora,[2],6.5%
same,Gram-positive bacteria existence ratio in bacterial flora,[2],75.1%
same,Pseudomonas existence ratio in bacterial flora,[2],4.8%
same,Ralstonia existence ratio in bacterial flora,[2],0.3%
same,Unknown bacteria existence ratio in bacterial flora,[2],8.2%
same,Differential pressure suppression effect vs Control,[3],102%
